Laboratory results: US9289411B2, “Anti-HCV agent” (NATIONAL UNIVERSITY CORPORATION OKAYAMA UNIVERSITY, priority 2011, dated 2016)
pEC50: −log10 of the molar value.

Columns and labels:
[1] = test system: HCV-RNA replication in ORL8 cells (HCV-O strain, Li23-derived); assay: microbe, parasite or virus in culture; conditions: for pEC50: Hepatitis C virus, ORL8, 72 h; for SI (CC50/EC50) / suppression of the level of HCV-RNA replication: ORL8 cells; for suppression of the level of HCV-RNA replication: 1 μM
Text: (§1) Assay systems using OR6 cells (HCV-O strain), 1B-4R cells (HCV-1B-4 strain), and AH1R cells (HCV-AH1R strain) as HuH-7 cell-derived full-length HCV-RNA-replicating cells, and ORL8 cells (HCV-O strain), ORL11 cells (HCV-O strain), 1B-4RL cells (HCV-1B-4 strain), and KAH5RL cells (HCV-KAH5 strain) as Li23 cell-derived full-length HCV-RNA-replicating cells were used for the quantitative analysis of anti-HCV activity and evaluation of a cytotoxic effect in the present invention. The three cell lines, i.e., the 1B-4R cells, the 1B-4RL cells, and the KAH5RL cells have been disclosed in WO 2010/026965 A1. The AH1R cells may be produced with reference to Mori K et al., BBRC, 371:104-109, 2008 and WO 2010/026965 A1. In addition, all the HCV strains belong to genotype 1b.
(§2) As necessary, an increase or decrease in expression level of an HCV protein (core protein) was examined by a Western blot method.
(§3) In the measurement of the renilla luciferase activity and the measurement by the WST-1 method, experiments were performed in three wells independent of each other, and their means and standard deviation were calculated.
The anti-HCV activities of N-89 and N-251 were examined using ORL8 cells and the EC50 values were calculated. An experimental scale and schedule are the same as those in Example 1.
N-89 and N-251 were added so as to achieve concentrations of 5 μM, a 2-fold dilution series from 5 μM (2.5, 1.3, 0.63, 0.31, 0.16, and 0.08 μM), and 0. The luciferase activities were measured 72 hours after the culture.
(§4) The anti-HCV activity of artemisinin was examined using OR6 cells and ORL8 cells and the EC50 values were calculated. An experimental scale and schedule are the same as those in Example 1.
(§5) Artemisinin was added so as to achieve concentrations of 100 μM, a 2-fold dilution series from 100 μM (50, 25, 13, 6.3, 3.1, and 1.6 μM), and 0. The luciferase activities were measured 72 hours after the culture.

[2] = test system: HCV-RNA replication in OR6 cells (HCV-O strain, HuH-7-derived); assay: microbe, parasite or virus in culture; conditions: for pEC50: Hepatitis C virus, OR6, 72 h; for SI (CC50/EC50): OR6 cells
Text: as §1, §2, §3
OR6 cells, which had been cultured in general medium for subculture, were plated onto a 24-well plate (2×10^4 cells in 1 mL of medium for […] cell line per well) and cultured. After 24 hours, N-89 was added so as to achieve concentrations of 20 μM, a 2-fold dilution series from 20 μM (10, 5, 2.5, 1.3, 0.63, and 0.31 μM), and 0, or N-251 was added so as to achieve concentrations of 10 μM, a 2-fold dilution series from 10 μM (5, 2.5, 1.3, 0.63, 0.31, and 0.16 μM), and 0. The renilla luciferase activities were measured 72 hours after the culture. N-89 and N-251 were diluted with DMSO.
as §4, §5

[3] = test system: HCV-RNA replication in ORL8 cells; assay: Combination effect with existing anti-HCV agents in ORL8 cells (luciferase activity vs expected additive curve); format: cell-based, HCV genotype 1b; conditions: for effect in combination with CsA: CsA 0.2, 0.3, 0.4 μM; for effect in combination with CsA / effect in combination with FLV / effect in combination with RBV: compound 0.1, 0.2, 0.4 μM; for effect in combination with FLV: FLV 0.3, 1.0, 3.0 μM; for effect in combination with RBV: RBV 12.5, 25, 50 μM
Description: The effect of N-89 in combination with RBV was examined using ORL8 cells.
The drugs RBV and N-89 were added so that the concentrations of RBV were set to 0, 12.5, 25, and 50 μM and the concentrations of N-89 were set to 0, 0.1, 0.2, and 0.4 μM at each concentration of RBV. The luciferase activity was measured 72 hours after the culture.
The upper left panel of FIG. 19 and the upper right panel of FIG. 19 show the logarithmic and linear plots expressed by % of the measurement results, respectively.
The effect of N-251 in combination with RBV was examined using ORL8 cells.
The effect of N-89 in combination with IFN-α and RBV was examined using ORL8 cells.
The drugs N-89, IFN-α, and RBV were added so that the concentrations of the two drugs IFN-α and RBV were fixed as follows: both of IFN-α and RBV at 0; IFN-α at 1 IU/mL and RBV at 6.25 μM; IFN-α at 4 IU/mL and RBV at 12.5 μM; and IFN-α at 16 IU/mL and RBV at 25 μM, and the concentrations of N-89 were set to 0, 0.1, 0.2, and 0.4 μM in the respective combinations of IFN-α and RBV. The luciferase activity was measured 72 hours after the culture.
The luciferase activity was measured 72 hours after the culture.
The effect of N-89 in combination with FLV was examined using ORL8 cells.
The drugs FLV and N-89 were added so that the concentrations of FLV were set to 0.3, 1.0, and 3.0 μM and the concentrations of N-89 were set to 0, 0.1, 0.2, and 0.4 μM at each concentration of FLV. The luciferase activity was measured 72 hours after the culture.
The effect of N-251 in combination with FLV was examined using ORL8 cells.
The drugs FLV and N-251 were added so that the concentrations of FLV were set to 0.3, 1.0, and 3.0 μM and the concentrations of N-251 were set to 0, 0.1, 0.2, and 0.4 μM at each concentration of FLV. The luciferase activity was measured 72 hours after the culture.

[4] = test system: HCV-RNA replication in ORL8 cells; assay: Effect of antioxidant vitamin E on anti-HCV activity in ORL8 cells (luciferase activity); format: cell-based, HCV genotype 1b; conditions: for luciferase activity, compound in combination with vitamin E: compound 0.5 μM + vitamin E 10 μM; for luciferase activity, compound in combination with vitamin E / luciferase activity (HCV activity), compound alone: 72 hours; for luciferase activity (HCV activity), compound alone: compound 0.5 μM alone; for canceling of the anti-HCV activity by vitamin E: vitamin E 10 μM
Description: The effect of addition of vitamin E on the anti-HCV activity of N-89 was examined using ORL8 cells. An experimental scale and schedule are the same as those in Example 1.
N-89 and vitamin E were simultaneously added so that the concentrations of N-89 and vitamin E were set to 0.5 μM and 10 μM, respectively. The luciferase activity was measured 72 hours after the culture.
The effect of addition of vitamin E on the anti-HCV activity of N-251 was examined using ORL8 cells. An experimental scale and schedule are the same as those in Example 1.
N-251 and vitamin E were simultaneously added so that the concentrations of N-251 and vitamin E were set to 0.5 μM and 10 μM, respectively. The luciferase activity was measured 72 hours after the culture.
The effect of addition of vitamin E on the anti-HCV activity of artemisinin was examined using ORL8 cells. An experimental scale and schedule are the same as those in Example 1.
Artemisinin and vitamin E were simultaneously added so that the concentrations of artemisinin and vitamin E were set to 100 μM and 10 μM, respectively. The luciferase activity was measured 72 hours after the culture.

Structure (SMILES) | pEC50 [1] | SI (CC50/EC50) [1] | suppression of the level of HCV-RNA replication [1] | pEC50 [2] | SI (CC50/EC50) [2] | effect in combination with CsA ([3]; 72 hours) | effect in combination with FLV ([3]; 72 hours) | effect in combination with RBV ([3]; 72 hours) | luciferase activity, compound in combination with vitamin E [4] | luciferase activity (HCV activity), compound alone [4] | canceling of the anti-HCV activity by vitamin E [4] | gaps between actually measured values and values expected as an additive effect ([3]; IFN-α 1 IU/mL and RBV 6.25 μM, N-89 0.1-0.4 μM) | effect in combination with IFN-α and RBV ([3]; IFN-α 4 IU/mL + RBV 12.5 μM and IFN-α 16 IU/mL + RBV 25 μM, N-89 0.1-0.4 μM, 72 hours)
OCCCCCCC1COOC2(CCCCCCCCCCC2)OOC1 [N-251, 6-(1,2,6,7-tetraoxaspiro[7,11]nonadec-4-yl)] | 7.00 | 13 | 99% | 6.16 | 4.4 | synergistic effect | synergistic effect | synergistic effect | 215% | 33% | completely canceled | – | –
C1CCCCCC2(CCCCC1)OOCCCOO2 [N-89, 1,2,6,7-tetraoxaspiro[7,11]nonadecane] | 7.05 | 26 | 99% | 6.18 | 14 | synergistic effect | synergistic effect | synergistic effect | 245% | 27% | completely canceled | little gaps | synergistic effect
